Data taken from patent US20070191292A1, “Antimycotic rhamnolipid compositions and related methods of use” (priority 2006, published 2007).
Like-named read-outs stand apart in the source and are kept apart here. Bridge positions count the residues as written; N and C are the ends. Square brackets hold non-standard residues; d marks the D form. Peptide text beside a SMILES is read from it. * marks the point of attachment. Asp(3S-OH) = N[C@H](C(=O)O)[C@H](O)C(=O)O; Thr(4-Cl) = N[C@H](C(=O)O)[C@H](O)CCl; X1 = CCCCCCCCC[C@@H](O)CC(=O)*; dDab = NCC[C@@H](N)C(=O)O; Dab = NCC[C@H](N)C(=O)O; Dhb = C/C=C(\N)C(=O)O

Experiments:
R.pilimanae = assay type: cell-based, Rhodotorula pilimanae
Experimental: (§1) Disk diffusion methods similar to those described by the NCCLS protocols for antifungal testing (Washington, G. L. W. a. J. A. 1995. Antibacterial Susceptibility Tests: Dilution and Disk Diffusion Methods, p. 1327-1341. in P. R. Murray (ed.), Manual of Clinical Microbiology, sixth ed.) were used. FIGS. 2(A) through 2(D) illustrate typically observed result assessments for antimicrobial combinations using the disk diffusion method.
(§2) Tested fungi, utilized in the examples that follow, were grown in RPMI Medium and adjusted to 5×10^4 CFU/ml, and transferred onto solid agar medium of the appropriate growth medium. The cultures were spread over the surface as a thin film. Four millimeter-diameter sterilized paper disks were deposited on the surface and syringomycin E and rhamnolipids were applied on disk 1 and disk 2, respectively (in approximately about 7 to about 10 μl aliquots). The distance between the disks was equal to the sum of radii of zones of inhibition of the drugs applied alone. The plates were incubated at approximately 35° C. for approximately 24-72 h.
(§3) SYRA was obtained by mixing SRE and rhamnolipids at different relative concentrations. SYRA was tested against a variety of yeasts and fungi and the zone of inhibition was measured as described with reference to Examples 2A and 2B.

Aspergillus flavus = assay type: cell-based; details: SRE alone (0.5 mg/ml solution, diluted)
Description: (§4) The checkerboard method is used frequently to evaluate antimicrobial combinations in vitro (Lorian, V., M. D. 1996. Antibiotics in Laboratory Medicine, 4th ed.). The tests were easily performed at the laboratory level by using the microdilution method. The results obtained from this study provided a better understanding of the nature of the interaction between SRE and rhamnolipids.
(§5) The checkerboard method is described by Sabath et al. (Sabath, L. D. 1967. Synergy of antibacterial substances by apparently known mechanisms. Antimicrob. Agents Chemother. 7:210-7.) and Garrod et al. (Garrod L. P. and P. M. Waterworth. 1962. Methods of testing combined antibiotic bactericidal action and the significance of the results. J. Clin. Pathol. 15:328-38.). A 96-well plate was used to determine the fractional inhibitory concentrations (FICs). Serial twofold dilutions of SRE and rhamnolipids were prepared separately. Then 25 μl of different concentrations of syringomycin are added in a vertical orientation and the rhamnolipids were added in horizontal orientation. The final volume of the well contained 50 μl of the subject composition and 50 μl of the tested culture. The plate was incubated at 35° C. for 24-72 h. and the FICs were calculated using the equation: (A/MICa)+(B/MICb)=FICa+FICb=FIC index, where A and B are concentrations of SRE and rhamnolipids, MICa and MICb are the minimum inhibitory concentrations, and FICa and FICb are the fractional inhibitory concentrations of SRE and rhamnolipids, respectively.
(§6) SRE and Rh solutions were prepared, at the concentrations shown (mg/ml), then diluted and used to determine the minimum inhibitory concentration (MIC, μg/ml) of each, alone and in composition with the other (SYRA and SYRA2). […] Beneficial effects against the other organisms tested are evidenced by examination and analysis of the corresponding data.

Penicillium sp2 = assay type: cell-based; details: SRE alone (0.5 mg/ml solution, diluted)
Description: as §4, §5, §6

Botrytis sp = assay type: cell-based; details: SRE alone (0.5 mg/ml solution, diluted)
Description: as §4, §5, §6

Rhodotorula pilimanae = assay type: cell-based; details: SRE alone (0.5 mg/ml solution, diluted)
Description: as §4, §5, §6

Cladosporium sp = assay type: cell-based; details: SRE alone (0.5 mg/ml solution, diluted)
Description: as §4, §5, §6

Rhizopus stonifer = assay type: cell-based; details: SRE alone (0.5 mg/ml solution, diluted)
Description: as §4, §5, §6

Candida albicans = assay type: cell-based; details: SRE alone (0.5 mg/ml solution, diluted)
Description: as §4, §5, §6

Fusarium oxysporum = assay type: cell-based; details: SRE alone (0.5 mg/ml solution, diluted)
Description: as §4, §5, §6

Penicillium sp1 = assay type: cell-based; details: SRE alone (0.5 mg/ml solution, diluted)
Description: as §4, §5, §6

Rhizoctonia solani = assay type: cell-based; details: SRE alone (0.5 mg/ml solution, diluted)
Description: as §4, §5, §6

W303C = assay: Disk diffusion, zone of inhibition; assay type: cell-based, Saccharomyces cerevisiae
Experimental: as §1, §2

8A-1B = assay: Disk diffusion, zone of inhibition; assay type: cell-based, Saccharomyces cerevisiae
Experimental: as §1, §2

[1] = test system: a variety of yeast and fungi; assay: Antifungal activities against a variety of yeast and fungi (Table 1); assay type: cell-based; details: component alone; Tables 1 and 2
Description: as §4
as §5, with “Then 25 μl of different concentrations of syringomycin are added in a vertical orientation and the rhamnolipids were added in horizontal orientation. The final volume of the well contained 50 μl of the subject composition and 50 μl of the tested culture.” left out, “respectively. […]” for “respectively.”

BY4741 = assay type: cell-based, Saccharomyces cerevisiae
Experimental: as §1, §2, §3

[2] = test system: Saccharomyces cerevisiae SRE resistant mutant strains Δsmr1,Δsyr2,Δipt1, Δelo2,Δelo3,Δfah1; assay: Replica plate growth inhibition, sphingolipid and sterol biosynthetic mutants; assay type: cell-based; details: parent strains 8A-1B, W303, BY4741
Description: To investigate the mechanism of action of SYRA, Saccharomyces cerevisiae sphingolipid and sterol biosynthetic mutants were used. Saccharomyces cerevisiae parent strains 8A-1B, W303, BY4741 and SRE resistant mutant strains Δsmr1,Δsyr2,Δipt1, Δelo2,Δelo3,Δfah1 were utilized, as described previously (Stock, S. D., H. Hama, J. A. Radding, D. A. Young, and J. Y. Takemoto. 2000. Syringomycin E inhibition of Saccharomyces cerevisiae: requirement for biosynthesis of sphingolipids with very-long-chain fatty acids and mannose- and phosphoinositol-containing head groups. Antimicrob. Agents Chemother. 44:1174-80.). For growth inhibition, a replica plate method was used (Hama, J., D. A. Young, J. A. Radding, D. Ma, J. Tang, S. D. Stock, and J. Y. Takemoto. 2000. Requirement of sphingolipid alpha-hydroxylation for fungicidal action of syringomycin E. FEBS Lett. 478:26-8). Fresh cells were replica plated onto yeast extract-peptone-dextrose (YPD) agar containing different concentrations of SYRA. Growth with and without SYRA addition were compared to determine relative sensitivity.

Structure (SMILES): C/C=C1\NC(=O)[C@H](Cc2ccccc2)NC(=O)[C@H](CCCNC(=N)N)NC(=O)[C@H](CCN)NC(=O)[C@@H](CCN)NC(=O)[C@@H](CO)NC(=O)[C@@H](NC(=O)C[C@H](O)CCCCCCCCC)COC(=O)[C@H]([C@H](O)CCl)NC(=O)[C@H]([C@H](O)C(=O)O)NC1=O [SRE, Syringomycin E] (X1-S[dS][dDab][Dab]RF[Dhb][Asp(3S-OH)][Thr(4-Cl)]; ester 1-C)
- Zone of Inhibition (R.pilimanae; SRE alone 2.4 mg/ml): 19.0 mm
- Zone of Inhibition (R.pilimanae; SRE alone 5.6 mg/ml): 21.5 mm
- Zone of Inhibition (R.pilimanae; SRE alone 10.3 mg/ml): 23.0 mm
- MIC (Aspergillus flavus): 7.8 µg/mL
- MIC (Penicillium sp2): 7.8 µg/mL
- MIC (Botrytis sp): 3.9 µg/mL
- MIC (Rhodotorula pilimanae): 3.9 µg/mL
- MIC (Cladosporium sp): 3.9 µg/mL
- MIC (Rhizopus stonifer): 7.8 µg/mL
- MIC (Candida albicans): 3.9 µg/mL
- MIC (Fusarium oxysporum): 7.8 µg/mL
- MIC (Penicillium sp1): 7.8 µg/mL
- MIC (Rhizoctonia solani): 3.9 µg/mL
- Zone of Inhibition (W303C; SRE alone 2.4 mg/ml): 26.0 mm
- Zone of Inhibition (W303C; SRE alone 5.6 mg/ml): 28.0 mm
- Zone of Inhibition (W303C; SRE alone 10.3 mg/ml): 29.0 mm
- Zone of Inhibition (8A-1B; SRE alone 2.4 mg/ml): 17.5 mm
- Zone of Inhibition (8A-1B; SRE alone 5.6 mg/ml): 19.0 mm
- Zone of Inhibition (8A-1B; SRE alone 10.3 mg/ml): 20.0 mm
- antifungal activities, alone [1]: strong activity
- Zone of Inhibition (BY4741; SRE alone 2.4 mg/ml): 19.0 mm
- Zone of Inhibition (BY4741; SRE alone 5.6 mg/ml): 21.0 mm
- Zone of Inhibition (BY4741; SRE alone 10.3 mg/ml): 23.0 mm
- growth inhibitory activity in mutants compared to wild type [2]: less in the mutants as compared to the wild type
